From BindingDB's records for PubMed 11303071 (Banyu Pharmaceutical, 2001)

Experiments:
[1] = molecular target: T1, Muscarinic acetylcholine receptor M2 (Homo sapiens, UniProt P08172)
T1 sequence (P08172 whole entry): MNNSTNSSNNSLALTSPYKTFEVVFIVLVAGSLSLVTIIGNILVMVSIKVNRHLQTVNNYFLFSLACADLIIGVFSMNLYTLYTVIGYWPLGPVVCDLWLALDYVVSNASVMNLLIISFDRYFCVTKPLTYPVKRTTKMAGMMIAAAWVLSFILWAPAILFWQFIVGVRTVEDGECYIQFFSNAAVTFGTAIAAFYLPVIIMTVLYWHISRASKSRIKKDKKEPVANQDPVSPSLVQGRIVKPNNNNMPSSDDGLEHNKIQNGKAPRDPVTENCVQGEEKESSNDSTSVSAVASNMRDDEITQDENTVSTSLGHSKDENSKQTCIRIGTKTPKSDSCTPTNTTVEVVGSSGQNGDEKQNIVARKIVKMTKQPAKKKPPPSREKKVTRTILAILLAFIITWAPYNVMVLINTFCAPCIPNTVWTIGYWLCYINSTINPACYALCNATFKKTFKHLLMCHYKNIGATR

[2] = molecular target: T2, Muscarinic acetylcholine receptor M5 (Homo sapiens, UniProt P08912)
T2 sequence (P08912 whole entry): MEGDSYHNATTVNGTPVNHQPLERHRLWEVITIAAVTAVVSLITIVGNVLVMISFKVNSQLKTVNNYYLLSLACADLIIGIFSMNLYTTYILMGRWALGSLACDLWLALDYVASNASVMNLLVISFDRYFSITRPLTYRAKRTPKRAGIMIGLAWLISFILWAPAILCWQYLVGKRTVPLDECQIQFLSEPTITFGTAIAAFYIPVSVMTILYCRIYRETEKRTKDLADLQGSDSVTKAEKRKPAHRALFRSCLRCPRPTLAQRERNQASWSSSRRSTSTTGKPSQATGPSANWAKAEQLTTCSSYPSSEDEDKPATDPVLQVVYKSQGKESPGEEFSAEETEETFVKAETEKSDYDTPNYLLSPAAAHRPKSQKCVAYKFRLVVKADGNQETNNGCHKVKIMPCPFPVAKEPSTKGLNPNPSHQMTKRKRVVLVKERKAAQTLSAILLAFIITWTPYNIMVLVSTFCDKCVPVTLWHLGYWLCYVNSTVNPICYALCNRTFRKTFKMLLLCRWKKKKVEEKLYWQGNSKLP

[3] = molecular target: T3, Muscarinic acetylcholine receptor M4 (Homo sapiens, UniProt P08173)
T3 sequence (P08173 whole entry): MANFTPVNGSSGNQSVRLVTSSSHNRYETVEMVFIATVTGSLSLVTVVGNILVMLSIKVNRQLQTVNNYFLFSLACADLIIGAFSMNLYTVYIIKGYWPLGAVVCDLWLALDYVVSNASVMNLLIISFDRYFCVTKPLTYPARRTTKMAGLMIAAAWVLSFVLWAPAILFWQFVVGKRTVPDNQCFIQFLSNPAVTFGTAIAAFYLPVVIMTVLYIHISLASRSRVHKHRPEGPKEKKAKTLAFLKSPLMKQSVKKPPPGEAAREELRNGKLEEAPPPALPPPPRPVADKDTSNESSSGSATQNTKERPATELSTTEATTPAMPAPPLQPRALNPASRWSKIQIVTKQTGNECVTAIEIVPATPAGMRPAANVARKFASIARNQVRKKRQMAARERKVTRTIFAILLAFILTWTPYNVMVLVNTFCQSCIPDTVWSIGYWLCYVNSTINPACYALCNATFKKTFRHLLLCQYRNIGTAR

[4] = molecular target: Muscarinic acetylcholine receptor M3 (Rattus norvegicus, UniProt P08483)
Muscarinic acetylcholine receptor M3, sequence (P08483 whole entry): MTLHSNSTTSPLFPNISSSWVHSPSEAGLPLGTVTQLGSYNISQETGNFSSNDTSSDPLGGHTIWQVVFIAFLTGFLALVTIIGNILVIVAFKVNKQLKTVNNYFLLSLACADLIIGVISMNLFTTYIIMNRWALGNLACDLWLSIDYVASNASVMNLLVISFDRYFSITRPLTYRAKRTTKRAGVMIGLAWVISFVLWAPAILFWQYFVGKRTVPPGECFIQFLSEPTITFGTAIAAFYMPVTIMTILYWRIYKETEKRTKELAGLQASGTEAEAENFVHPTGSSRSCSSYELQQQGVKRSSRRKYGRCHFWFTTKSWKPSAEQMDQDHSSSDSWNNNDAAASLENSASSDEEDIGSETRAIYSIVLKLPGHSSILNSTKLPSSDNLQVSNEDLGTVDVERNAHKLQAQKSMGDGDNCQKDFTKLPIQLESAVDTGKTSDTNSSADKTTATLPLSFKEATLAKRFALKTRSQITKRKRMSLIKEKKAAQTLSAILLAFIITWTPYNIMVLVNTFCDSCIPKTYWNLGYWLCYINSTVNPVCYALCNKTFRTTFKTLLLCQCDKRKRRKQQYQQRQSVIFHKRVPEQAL

NC1=COC=C(CN2CCC(NC(=O)[C@](O)(c3ccccc3)[C@@H]3CCC(F)(F)C3)CC2)N1 [Compound A]
Ki [1]: 540 nM
Ki [2]: 7.7 nM
Ki [3]: 15 nM
Ki [4]: 2.6 nM

NC(=O)C(c1ccccc1)(c1ccccc1)[C@@H]1CCN(CCc2ccc3c(c2)CCO3)C1 [Enablex]
Ki [2]: 2.3 nM
Ki [3]: 8.6 nM
